Experiments:
Experiment in all cases: relative viability (nuclei count vs DMSO), 5 days (fraction); higher = more cells survive
MLN4924 + Olaparib = compound: NS(=O)(=O)OC[C@@H]1C[C@@H](n2ccc3c(N[C@H]4CCc5ccccc54)ncnc32)C[C@@H]1O [MLN4924] + O=C(c1cc(Cc2n[nH]c(=O)c3ccccc23)ccc1F)N1CCN(C(=O)C2CC2)CC1 [Olaparib] (partner 8 µM)
In short: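 For relative viability, nuclei counts in treated wells were divided by those in vehicle wells. Lung cancer cell lines had been pin-tool dosed in 1536-well plates the day after seeding and cultured for 5 days, then fixed and stained in one step (final 0.05% Triton X-100, 1% formaldehyde, 1 ug/ml Hoechst) and imaged at 4×. Doses were one drug alone or a fixed anchor-drug dose plus five library-drug doses (not always all listed) in √10 steps, and values are duplicate-plate medians.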

GSK126 = compound: CC[C@H](C)N1C=C(C2=C(C=C(C=C21)C3=CN=C(C=C3)N4CCNCC4)C(=O)NCC5=C(C=C(NC5=O)C)C)C [GSK126]
In short: (§1)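 Lung cancer cell lines in 1536-well plates were kept overnight at 37 °C, then pinned with five library-drug doses (not always all listed) spaced by √10 on vehicle-anchored plates. After 5 days without medium change, cells were fixed, permeabilised and Hoechst-stained in one step, imaged at 4×, and nuclei were counted with MetaXpress. Viability is treated-well nuclei divided by vehicle-well nuclei, taken as the median over plates. Plates passed only with control CV below 25% and at least one doubling.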

MLN4924 = compound: NS(=O)(=O)OC[C@@H]1C[C@@H](n2ccc3c(N[C@H]4CCc5ccccc54)ncnc32)C[C@@H]1O [MLN4924]
In short: as §1

Carboplatin = compound: C1CC(C1)(C(=O)O)C(=O)O.[NH2-].[NH2-].[Pt+2] [Carboplatin]
In short: as §1

In the case of UMC-11, the relative viability (MLN4924 + Olaparib; first compound 0.04 µM) is reported as 0.408, the relative viability (MLN4924 + Olaparib; first compound 0.1265 µM) is reported as 0.246 and the relative viability (MLN4924 + Olaparib; first compound 0.4 µM) is reported as 0.255. For the same cell line, the relative viability (MLN4924 + Olaparib; first compound 1.265 µM) was 0.154, the relative viability (MLN4924 + Olaparib; first compound 4 µM) was 0.138 and the relative viability (GSK126; 0.08 µM) was 1.09. It also gave a relative viability (GSK126; 0.253 µM) of 0.982, a relative viability (GSK126; 0.8 µM) of 1.02 and a relative viability (GSK126; 2.53 µM) of 1.01. For the same cell line, the relative viability (GSK126; 8 µM) was 1.11, the relative viability (MLN4924; 0.04 µM) was 0.678 and the relative viability (MLN4924; 0.1265 µM) was 0.463. For the same cell line, the relative viability (MLN4924; 0.4 µM) was 0.383, the relative viability (MLN4924; 1.265 µM) was 0.189 and the relative viability (MLN4924; 4 µM) was 0.19. For the same cell line, the relative viability (Carboplatin; 0.08 µM) was 0.982, the relative viability (Carboplatin; 0.253 µM) was 0.996 and the relative viability (Carboplatin; 0.8 µM) was 1.01. It also gave a relative viability (Carboplatin; 2.53 µM) of 0.923 and a relative viability (Carboplatin; 8 µM) of 0.767.
